Test results: US10383873B2, “Method and kits for identifying of CDK9 inhibitors for the treatment of cancer” (Memorial Sloan-Kettering Cancer Center, priority 2014, dated 2019)

What was measured:
SNU-475 cells = assay: Proliferation assay in SNU-475 cells with enforced MYC expression; assay type: cell-based, human; settings: MYC levels equivalent to HepG2
Alexander cells = assay: Orthotopic Alexander HCC xenograft, bioluminescent imaging and Ki67; assay type: in vivo, mice; settings: low MYC expressing Alexander; same treatment
Method: (§1) All mouse experiments were approved by the Memorial Sloan-Kettering Cancer Center (MSKCC) Animal Care and Use Committee (protocol no. 11-06-011). Mice were maintained under specific pathogen-free conditions, and food and water were provided ad libitum. For conditional RNAi experiments in vivo, Tet-on murine HCC MP1 cells were transduced with luciferase-hygro and TRMPV-Neo-miR-E shRNA constructs. […] For whole-body bioluminescent imaging, mice were intraperitoneally injected with 50 mg/kg D-Luciferin (Goldbio), and after 10 min, analysed using an IVIS Spectrum system (Caliper LifeSciences). Quantification was performed using Living Image software (Caliper LifeSciences) with standardized round regions of interests covering the mouse trunk and extremities. […]
(§2) Liver tissues and cell pellets were lysed in Laemmli buffer or protein lysis buffer (200 mM NaCl, 0.2% NP40, 50 mM Tris at pH 7.5, 1% Tween20, protease and phosphatases inhibitors) using a tissue homogenizer. […] The abundance of β-actin was monitored to ensure equal loading. Images were analyzed using the AlphaView software (ProteinSimple). […]

[1] = tested on: non-transformed cell lines; assay: Proliferation assay in non-transformed cell lines; assay type: cell-based; settings: two non-transformed cell lines, compared with cancer cell lines
Method: Dead cells were excluded using propidium iodide (PI) staining to score cells with sub-2N DNA content. Measurements of cell concentration were performed on a Guava Easycyte (Millipore), gating only viable cells (FSC/SSC/PI-). Proliferation rates were calculated by dividing cell concentration at 72 h and cell concentration at 0 h, divided by 72. Relative proliferation rates were calculated by normalizing to the rate of vehicle-treated cells. Population doublings were calculated by calculating log 2 (cells at end point/cells at initial point) divided by time in days.

Ser2 of RNA pol II = assay: Immunoblot of Pol II Ser2 phosphorylation in tumors; assay type: in vivo, mice
Source text: Mice were maintained under specific pathogen-free conditions, and food and water were provided ad libitum. […] One million murine or human HCC cells were ortothopically transplantated into female nude recipient mice (NCR nu/nu, purchased from Charles River laboratories and Harlan Laboratories), as described previously (Saborowski et al. 2013 Proc Natl Acad Sci USA. 2013 Nov. 26; 110(48):19513-8. doi: 10.1073/pnas.1311707110.). […] For PHA-767491 treatment trials, PHA-767491 was solved in ultrapure distilled water, filtered by 0.2 M filters, and diluted to a final concentration of 5 mg/ml. Mice were orally given twice daily PHA-767491 (50 mg/kg) or a similar volume of vehicle (water). The sick animals were sacrificed and liver tumors were used for further analysis. Liver tumors were excised, formalin-fixed and paraffin-embedded, frozen, or embedded in OCT.
Liver tissues and cell pellets were lysed in Laemmli buffer or protein lysis buffer (200 mM NaCl, 0.2% NP40, 50 mM Tris at pH 7.5, 1% Tween20, protease and phosphatases inhibitors) using a tissue homogenizer. Equal amounts of protein were separated on 12% SDS-polyacrylamide gels and transferred to PVDF membranes. […] Images were analyzed using the AlphaView software (ProteinSimple). Detection in immunoblots was performed using antibodies for CDK9 (Santa Cruz Biotechnology), MCM6 (Santa Cruz Biotechnology), PSMB2 (Santa Cruz Biotechnology), β-Actin (AC-15, Sigma), p53 (Leica Biosystems), MYC (Abcam), CCNT1 (Santa Cruz Biotechnology), phopho-Ser2 RNA Pol II (Cell Signaling), and RNA Pol II (Santa Cruz Biotechnology).

[2] = tested on: MYC-overexpressing Alexander cells; assay: Proliferation assay in Alexander cells with enforced MYC expression; assay type: cell-based, human; settings: ectopic MYC expression versus empty vector
human HCC cell lines [3] = settings: previous findings; cited from earlier work
CDK9 = CDK9 (Homo sapiens, UniProt P50750); settings: versus other available inhibitors
Sequence of CDK9 (P50750 whole entry, species assumed): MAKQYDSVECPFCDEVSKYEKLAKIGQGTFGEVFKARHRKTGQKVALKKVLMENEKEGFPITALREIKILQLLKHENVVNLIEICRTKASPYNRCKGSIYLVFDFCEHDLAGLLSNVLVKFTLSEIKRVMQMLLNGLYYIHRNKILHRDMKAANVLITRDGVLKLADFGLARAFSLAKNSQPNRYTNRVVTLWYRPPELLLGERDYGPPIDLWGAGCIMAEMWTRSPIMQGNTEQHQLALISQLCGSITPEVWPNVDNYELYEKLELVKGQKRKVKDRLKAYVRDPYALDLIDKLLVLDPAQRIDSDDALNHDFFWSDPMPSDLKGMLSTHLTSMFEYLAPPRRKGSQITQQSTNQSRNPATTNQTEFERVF
Sequence of CDK9 (O60563 whole entry partner, species assumed): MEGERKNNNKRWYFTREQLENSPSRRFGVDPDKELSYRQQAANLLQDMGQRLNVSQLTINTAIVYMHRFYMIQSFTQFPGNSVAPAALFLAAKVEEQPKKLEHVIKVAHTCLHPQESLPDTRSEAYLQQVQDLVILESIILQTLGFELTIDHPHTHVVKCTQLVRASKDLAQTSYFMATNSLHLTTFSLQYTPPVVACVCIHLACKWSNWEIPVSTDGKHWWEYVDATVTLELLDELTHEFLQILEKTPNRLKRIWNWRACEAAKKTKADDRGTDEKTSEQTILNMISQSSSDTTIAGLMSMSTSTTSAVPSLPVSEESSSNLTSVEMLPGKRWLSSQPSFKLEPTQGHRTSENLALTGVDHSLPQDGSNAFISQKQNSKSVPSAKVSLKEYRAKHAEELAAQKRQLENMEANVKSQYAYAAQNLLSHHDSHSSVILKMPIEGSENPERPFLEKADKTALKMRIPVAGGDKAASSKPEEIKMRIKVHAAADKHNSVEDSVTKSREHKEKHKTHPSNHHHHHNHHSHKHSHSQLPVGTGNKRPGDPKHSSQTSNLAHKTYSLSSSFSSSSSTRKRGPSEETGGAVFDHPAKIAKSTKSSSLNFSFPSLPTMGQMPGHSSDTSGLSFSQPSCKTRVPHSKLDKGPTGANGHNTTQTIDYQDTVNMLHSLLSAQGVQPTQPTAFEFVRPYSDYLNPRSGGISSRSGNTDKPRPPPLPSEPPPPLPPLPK

[4] = tested on: human and murine cell lines; assay: Comparison of inhibitor IC50 with anti-proliferative effects of CDK9 shRNAs; assay type: cell-based; settings: IC50 compared with competitive proliferation assays
Source text: (FIG. 3A) Scatter plot illustrating the correlation between anti-proliferative effects of CDK9 shRNAs and the IC50 of PHA-767491 in six human cell lines. The correlation and p values of three additional CDK9 inhibitors and one DNA replication inhibitor (aphidicolin) are also shown in the right panel. The survival is defined as the average of the survival ratio of two shRNAs in competitive proliferation assay. (FIG. 3B) Proliferation rates of PHA-767491-treated human cells, calculated by measuring the change in viable cell number after 72 h in culture and fitting data to an exponential growth curve. Results were normalized to the proliferation rate of vehicle (H2O) treated cells, set to 1. Values are mean+/−SD of three independent replicates. (FIG. 3C) Summary of PHA-767491 IC50 values of human cell lines in FIG. 3A. […]
Competitive proliferation assays using shRNAs in TRMPV-Neo vector (with miR-30 or miR-E backbone) were performed as described previously (Zuber J, et al. Nature (2011) 478: 524-528). […] Proliferation rates were calculated by dividing cell concentration at 72 h and cell concentration at 0 h, divided by 72. Relative proliferation rates were calculated by normalizing to the rate of vehicle-treated cells. Population doublings were calculated by calculating log 2 (cells at end point/cells at initial point) divided by time in days. […]

human HCC cell lines [5] = assay: Cell cycle analysis (BrdU/7-AAD staining) after 48 hours of treatment; assay type: cell-based; settings: PHA-767491 treatment
Method: (FIG. 3E) Representative flow cytometry plots showing cell cycle analysis (BrdU+7-AAD+ double staining) of cells after 48 hours of PHA-767491 treatment.

HepG2 cells = assay: Orthotopic HepG2 HCC xenograft, bioluminescent imaging and Ki67; assay type: in vivo, mice; settings: high MYC expressing HepG2; 50 mg/kg twice a day
Method: as §1, §2

Row | Compound | sensitivity compared with HepG2 cells (SNU-475 cells) | effect on tumor-cell proliferation and tumor growth (Alexander cells) | sensitivity to treatment [1] | Pol II Ser2 phosphorylation in tumors (Ser2 of RNA pol II; human HCC xenografts, 50 mg/kg twice a day, 50 mg/kg) | Pol II Ser2 phosphorylation in Alexander tumors (Ser2 of RNA pol II; low MYC expressing Alexander xenografts) | total RNA pol II levels in tumors (Ser2 of RNA pol II; two representative tumors) | sensitivity to CDK9 inhibition [2] | p53 dependence of proliferation inhibition (human HCC cell lines [3]) | selectivity for CDK9 (CDK9) | similarity of activity spectrum to CDK9 shRNAs [4] | cell cycle effect (human HCC cell lines [5]) | tumor growth (HepG2 cells) | tumor-cell proliferation (HepG2 cells)
1 | O=C1NCCc2[nH]c(-c3ccncc3)cc21 [PHA-767491] | produced a similar sensitivity | little if any effect | consistently less sensitive | decrease in the levels of phosphorylation of Ser2 of RNA pol II | detectable decrease in Pol II Ser2 phosphorylation | mild changes in total RNA pol II levels | became more sensitive | inhibits cancer cell proliferation through p53-independent mechanisms | more selective for CDK9 than other available inhibitors | most closely recapitulated shRNA-mediated CDK9 inhibition | triggered cell-cycle arrest | substantial inhibition of tumor growth and some tumor regressions | decreased tumor-cell proliferation
2 | C[C@@]1(CO)[C@H](O)CC[C@@]2(C)[C@H]1CC[C@H]1C[C@@H]3C[C@@]12CC[C@]3(O)CO [aphidicolin] | – | – | – | – | – | – | – | – | – | did not mimic the effects of CDK9 shRNAs | – | – | –
